Reference: PMC8113459, “Selective inhibition of cullin 3 neddylation through covalent targeting DCN1 protects mice from acetaminophen-induced liver toxicity” (Nature Communications, 2021)
Several values for one entry are separate records, joined by “and”; a condition that tells them apart may be missing. Identical values can stand only once.

What was measured:
[1] = system: APAP-induced liver injury; test: APAP-induced liver injury: alanine aminotransferase (ALT) level; assay type: in vivo, mouse; conditions: single dose 400 mg/kg, IP
Method: (§1) The in vivo studies were performed under animal protocols (PRO00007499) and (PRO00006638) approved by the Institutional Animal Care & Use Committee of the University of Michigan, in accordance with the recommendations in the Guide for the Care and Use of Laboratory Animals of the National Institutes of Health. C57BL/6 WT mice (~8 weeks, male, normal chow) were purchased from the Jackson Laboratory and randomly divided into eight groups (8–9 mice per group) treated (IP) as follows: phosphate-buffered saline vehicle once per day for 3 days (G1), APAP alone a single dose at 400 mg/kg on day 1 (G2), DI-1859 alone 25 mg/kg once per day for 3 days (G3), DI-1859 alone 50 mg/kg once per day for 3 days (G4), pretreatment (1 day before the APAP administration) with DI-1859 at 25 mg/kg once per day for 3 days followed with APAP at 400 mg/kg on day (G5), pretreatment (1 day before the APAP administration) with DI-1859 at 50 mg/kg once per day for 3 days followed with APAP at 400 mg/kg on day (G6), APAP a single dose at 400 mg/kg (3 h before the first DI-1859 administration) followed with DI-1859 at 25 mg/Kg once per day for 3 days (G7), and APAP a single dose at 400 mg/kg (3 h before the first DI-1859 administration) followed with DI-1859 at 50 mg/Kg once per day for 3 days (G8).
(§2) To induce acute liver injury, animals received PBS or APAP (400 mg/kg, sigma, A7085) through I.P. injection at 12 p.m. and were sacrificed 48 h afterward. To examine the protective effect of DI-1859 (groups 5 and 6), animals were I.P. injected with compound for 3 consecutive days (9 a.m. on each day, starting 1 day before APAP administration). To examine the restorative effect of DI-1859 (groups 7 and 8), animals were I.P. injected with compound 3 h after APAP administration followed by two additional treatments (9 a.m. on the next 2 days). Body weight and blood glucose level measurement, along with blood sample collection, were performed at 12 p.m. on each day.
Blood glucose levels were determined using glucometers (Bayer Corp., Pittsburgh, PA). Plasma ALT activity was measured using an ALT reagent set (Pointe Scientific Inc., Canton, MI).

[2] = system: APAP-induced liver injury; test: APAP-induced liver injury: ROS assay in liver tissue; assay type: in vivo, mouse; conditions: G2: APAP 400 mg/kg, a single dose
Method: as §1, §2
Liver samples were homogenized in a lysis buffer and mixed with a dichlorofluorescein diacetate fluorescent probe (DCF, Sigma, D6883) to a final probe concentration of 5 µM for 1 h at 37 °C. DCF fluorescence was measured using a BioTek Synergy 2 Multi-Mode Microplate Reader (485 nm excitation and 527 nm emission).

[3] = system: U2OS cells; test: Cell viability assay (WST-8), U2OS; assay type: cell-based, human; conditions: for cell viability relative to control: replicates
Method: (§3) Cell viability assay was performed as previously described. The effect of DCN1 inhibitors on cell growth was evaluated by a WST-8 [2-(2-methoxy-4-nitrophenyl)-3-(4-nitrophenyl)-5-(2,4-disulfophenyl)-2H-tetrazolium, monosodium salt assay (Dojindo Molecular Technologies, Inc). Cells (2000–3000 cells in each well) were seeded in 96-well tissue culture plates in medium (100 μL) and treated with serial dilution of DCN1 inhibitors for 3 days. At the end of incubation, WST-8 dye (20 μL) was added to each well and incubated for 1–3 h, then the absorbance was measured in a microplate reader (Molecular Devices) at 450 nm. Cell growth inhibition was evaluated as the ratio of the absorbance of the sample to that of the control. The values were inserted into Prism software, and the curves and the EC50 values were produced by Prism software.

[4] = system: HCT116 cells; test: Cell viability assay (WST-8), HCT116; assay type: cell-based, human; conditions: for cell viability relative to control: replicates
Method: as §3

[5] = Cell viability assay (WST-8), HCT116; assay type: cell-based, human; conditions: human, HCT116 cells, replicates, read-out: cell viability relative to control
Method: as §3

[6] = Cell viability assay (WST-8), MDA-MB-231; assay type: cell-based, human; conditions: human, MDA-MB-231 cells, replicates, read-out: cell viability relative to control
Method: as §3

[7] = system: MDA-MB-231 cells; test: Cell viability assay (WST-8), MDA-MB-231; assay type: cell-based, human; conditions: for cell viability relative to control: replicates
Method: as §3

[8] = system: neddylation of cullin 3; test: Western blot, cullin 3 neddylation in cells of different tissue types (U2OS, THLE2, MDA-MB-231, KYSE70, HCT116); assay type: cell-based, human
Method: (§4) Western blotting was performed as described previously. Treated cells were lysed by RIPA buffer supplemented with protease inhibitor. The expression level of indicated proteins was examined by immunoblotting analysis and GAPDH was used as the loading control. Antibodies were purchased commercially: cullin 1 (sc-17775, 1:500 dilution) and cullin 2 (sc-166506, 1:500 dilution) from Santa Cruz Biotech (Santa Cruz, CA); cullin 4A (PA5-14542, 1:1000 dilution), cullin 4B (PA5-50647, 1:1000 dilution), and DCN3 (DCUN1D3, PA5-44000, 1:1000 dilution) from Thermo Fisher Scientific (Wayne, MI); cullin 3 (2759, 1:1000), NRF2 (12721, 1:1000 dilution), HO-1 (70081, 1:1000 dilution), and Bim (2819, 1:1000 dilution) from Cell Signaling Technology (Boston, MA); DCN1 (GWB-E3D700, 1:1000 dilution) from GenWay Biotech (San Diego, CA); and cullin 5 (A302-173A, 1:500 dilution) from Bethyl Labs (Montgomery, TX). Results are representative of two independent experiments.

[9] = system: NRF2 protein; test: Western blot, NRF2 protein accumulation in cells; assay type: cell-based, human; conditions: 100 nM
Method: as §4

[10] = target: DCN1 (Homo sapiens, UniProt Q96GG9); test: Intact-protein mass spectrometric analysis of covalent complex formation, Method A; assay type: binding; conditions: for Percentage of the formation of covalent complex with DCN1 protein: 37 °C
Chain of DCN1 (Q96GG9 58-259 limits assumed): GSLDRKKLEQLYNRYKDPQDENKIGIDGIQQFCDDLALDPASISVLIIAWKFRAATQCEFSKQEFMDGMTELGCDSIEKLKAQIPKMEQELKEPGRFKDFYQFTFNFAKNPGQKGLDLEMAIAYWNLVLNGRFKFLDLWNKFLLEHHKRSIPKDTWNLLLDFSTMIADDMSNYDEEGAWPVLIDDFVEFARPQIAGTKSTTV
Source text: MassHunter Qualitative Analysis software (Agilent) was used to analyze the data. Intact protein masses were obtained using the maximum entropy deconvolution algorithm. The mass spectrometry data in Supplementary Figs. 1–11 were generated by Method A.

[11] = system: neddylation of cullin 3; test: Western blot, cullin 3 neddylation in U2OS cells; assay type: cell-based, human; conditions: 24 h, Fig. 1c
Method: as §4

[12] = 10 min incubation, 1.2-fold excess inhibitor

Compound: CC(=O)Nc1ccc(O)cc1 [APAP, acetaminophen]
- hepatotoxicity in mice [1]: induced severe hepatotoxicity
- ROS level in mouse liver tissue, mean [2]: 12.4435 A.U./ug
- ROS level normalised to the mean of G1 (vehicle), mean [2]: 1.645

Compound: CCC(=O)N[C@@H](Cc1nc2ccc(C(C)C)cc2s1)C(=O)N[C@H](CNC(=O)CCN1CCOCC1)C1CCCCC1 [DI-591]
- EC50 ([3]; Homo sapiens, U2OS, 72 h, read-out: EC50, cell growth inhibition): > 1000 nM
- cell viability relative to control ([3]; conc 10, 72 h): 113.521 and 92.8169 and 93.8028
- cell viability relative to control ([3]; conc 30, 72 h): 110.282 and 96.9014 and 89.8591
- cell viability relative to control ([3]; conc 100, 72 h): 112.958 and 95.2113 and 89.4366
- cell viability relative to control ([3]; conc 300, 72 h): 115.211 and 91.5493 and 99.0141
- cell viability relative to control ([3]; conc 1000, 72 h): 84.9296 and 111.127 and 85.7746
- EC50 ([4]; Homo sapiens, HCT-116, 72 h, read-out: EC50, cell growth inhibition): > 1000 nM
- cell viability relative to control ([4]; conc 3, 72 h): 106.068 and 106.647
- cell viability relative to control ([4]; conc 10, 72 h): 94.7863 and 106.766
- cell viability relative to control ([4]; conc 30, 72 h): 103.675 and 96.2874
- cell viability relative to control ([4]; conc 100, 72 h): 92.6577 and 103.333 and 79.1617
- cell viability relative to control ([4]; conc 300, 72 h): 90.9009 and 107.521 and 85.6886
- cell viability relative to control ([4]; conc 1000, 72 h): 100.085 and 92.0359
- viability at 72 h ([5]; conc 3, 72 h): 106%
- viability at 72 h ([5]; conc 10, 72 h): 94.3%
- viability at 72 h ([5]; conc 30, 72 h): 90%
- viability at 72 h ([5]; conc 1000, 72 h): 94.3%
- viability at 72 h ([6]; conc 10, 72 h): 94.3%
- viability at 72 h ([6]; conc 30, 72 h): 113%
- viability at 72 h ([6]; conc 100, 72 h): 109%
- viability at 72 h ([6]; conc 300, 72 h): 105%
- viability at 72 h ([6]; conc 1000, 72 h): 94.9%
- EC50 ([7]; Homo sapiens, MDA-MB-231, 72 h, read-out: EC50, cell growth inhibition): > 1000 nM
- cell viability relative to control ([7]; conc 10, 72 h): 101.954 and 101.609
- cell viability relative to control ([7]; conc 30, 72 h): 108.276 and 97.3563
- cell viability relative to control ([7]; conc 100, 72 h): 100.345 and 97.5862
- cell viability relative to control ([7]; conc 300, 72 h): 105.517 and 106.667
- cell viability relative to control ([7]; conc 1000, 72 h): 102.644

Compound: C=C(CN(C)C)C(=O)NC[C@H](NC(=O)[C@@H](Cc1nc2ccc(C(C)C)cc2s1)NC(=O)CC)C1CCCCC1 [DI-1859DD]
- times less potent than DI-1548 and DI-1859, respectively, on cullin 3 neddylation [8]: > 300 times
- effect on the neddylation of cullin 3 ([8]; 100–300 nM): no significant effect
- accumulation of NRF2 protein [9]: no obvious accumulation

Compound: CCC(=O)N[C@@H](Cc1nc2ccc(C(C)C)cc2s1)C(=O)N[C@H](CNC(=O)/C=C/CN(C)C)C1CCCCC1 [compound 5]
- covalent complex formation / reaction kinetics with DCN1 protein (in words) [10]: reaction kinetics similar to that of 3
- Percentage of the formation of covalent complex with DCN1 protein [10, 12]: 0%
- Percentage of the formation of covalent complex with DCN1 protein ([10]; 60 min (1 h) incubation): 0%
- Percentage of the formation of covalent complex with DCN1 protein ([10]; 180 min (3 h) incubation): 2%
- Percentage of the formation of covalent complex with DCN1 protein ([10]; 720 min (12 h) incubation): 30%

Compound: C=C(CCN1CCOCC1)C(=O)NC[C@@H](NC(=O)[C@H](Cc1nc2ccc(C(C)C)cc2s1)NC(=O)CC)C1CCCCC1 [compound 8]
- covalent complex formation / reaction kinetics with DCN1 protein (in words) [10]: much slower reaction kinetics than 6 and 7
- Percentage of the formation of covalent complex with DCN1 protein ([10]; 60 min (1 h) incubation): 15%
- Percentage of the formation of covalent complex with DCN1 protein ([10]; 720 min (12 h) incubation): 100%
- potency in inhibition of cullin 3 neddylation compared with DI-591 [11]: much more potent than DI-591

Compound: C=C(CCN(C)C)C(=O)NC[C@@H](NC(=O)[C@H](Cc1nc2ccc(C(C)C)cc2s1)NC(=O)CC)C1CCCCC1 [compound 9]
- covalent complex formation / reaction kinetics with DCN1 protein (in words) [10]: much slower reaction kinetics than 6 and 7
- Percentage of the formation of covalent complex with DCN1 protein ([10]; 60 min (1 h) incubation): 30%
- Percentage of the formation of covalent complex with DCN1 protein ([10]; 180 min (3 h) incubation): 50%
- Percentage of the formation of covalent complex with DCN1 protein ([10]; 720 min (12 h) incubation): 100%
- potency in inhibition of cullin 3 neddylation compared with DI-591 [11]: much more potent than DI-591

Compound: C=C(Cn1ccnc1)C(=O)NC[C@@H](NC(=O)[C@H](Cc1nc2ccc(C(C)C)cc2s1)NC(=O)CC)C1CCCCC1 [compound 10]
- covalent complex formation / reaction kinetics with DCN1 protein (in words) [10]: slower reaction kinetics with DCN1 than DI-1548 and DI-1859
- Percentage of the formation of covalent complex with DCN1 protein [10, 12]: 80%
- Percentage of the formation of covalent complex with DCN1 protein ([10]; 60 min (1 h) incubation): 100%
- Percentage of the formation of covalent complex with DCN1 protein ([10]; 180 min (3 h) incubation): 100%
- Percentage of the formation of covalent complex with DCN1 protein ([10]; 720 min (12 h) incubation): 100%
- potency in inhibition of cullin 3 neddylation compared with DI-1548 ([8]; in cell, Supplementary Fig. 12): ten times less potent than DI-1548
